Source: patent US10670605B2, “Cysteine reactive probes and uses thereof” (The Scripps Research Institute, priority 2015, dated 2020)

What was measured:
Assay in all cases: Competitive isoTOP-ABPP in situ (fragment-treated cells)
Format in all cases: cell-based
[1] = biological target: cysteines in MDA-MB-231 and Ramos cells (Homo sapiens, UniProt Q96NY7); details: 200 μM, insitu, 231
[2] = biological target: cysteines in MDA-MB-231 and Ramos cells (Homo sapiens, UniProt Q9Y676); details: 200 μM, insitu, 231
[3] = biological target: T1, cysteines in MDA-MB-231 and Ramos cells (Homo sapiens, UniProt Q8WVV9); details: 200 μM, insitu, 231
T1 sequence (Q8WVV9 1-542): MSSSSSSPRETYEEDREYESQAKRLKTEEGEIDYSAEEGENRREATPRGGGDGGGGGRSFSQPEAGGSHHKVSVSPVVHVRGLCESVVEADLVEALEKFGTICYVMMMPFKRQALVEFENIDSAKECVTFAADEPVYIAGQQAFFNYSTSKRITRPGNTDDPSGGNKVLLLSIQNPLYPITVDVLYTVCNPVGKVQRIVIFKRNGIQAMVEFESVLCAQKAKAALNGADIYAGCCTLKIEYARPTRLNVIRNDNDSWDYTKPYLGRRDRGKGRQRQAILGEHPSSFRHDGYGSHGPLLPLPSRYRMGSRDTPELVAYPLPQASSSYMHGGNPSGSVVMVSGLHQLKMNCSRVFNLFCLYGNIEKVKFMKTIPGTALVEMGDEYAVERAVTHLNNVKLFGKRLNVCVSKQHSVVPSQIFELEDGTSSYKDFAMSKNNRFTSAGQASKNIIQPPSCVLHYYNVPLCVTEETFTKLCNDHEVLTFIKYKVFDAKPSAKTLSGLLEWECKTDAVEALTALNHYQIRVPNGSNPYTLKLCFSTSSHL

[4] = biological target: T2, cysteines in MDA-MB-231 and Ramos cells (Homo sapiens, UniProt O43175); details: 200 μM, insitu
T2 sequence (O43175 1-533): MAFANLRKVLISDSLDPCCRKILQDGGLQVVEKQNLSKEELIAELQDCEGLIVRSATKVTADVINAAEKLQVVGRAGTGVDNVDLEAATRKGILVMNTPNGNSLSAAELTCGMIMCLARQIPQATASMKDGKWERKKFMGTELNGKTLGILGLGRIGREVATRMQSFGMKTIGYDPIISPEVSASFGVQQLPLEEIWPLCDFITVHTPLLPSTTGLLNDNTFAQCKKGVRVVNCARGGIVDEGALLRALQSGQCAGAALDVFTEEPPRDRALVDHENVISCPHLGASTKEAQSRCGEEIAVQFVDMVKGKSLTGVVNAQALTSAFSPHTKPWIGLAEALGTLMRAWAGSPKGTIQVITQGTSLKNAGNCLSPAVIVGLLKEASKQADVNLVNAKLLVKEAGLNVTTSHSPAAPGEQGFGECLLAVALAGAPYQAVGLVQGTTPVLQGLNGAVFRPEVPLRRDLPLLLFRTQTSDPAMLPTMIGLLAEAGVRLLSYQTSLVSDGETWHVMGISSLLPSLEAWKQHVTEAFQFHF

[5] = biological target: T3, cysteines in MDA-MB-231 and Ramos cells (Homo sapiens, UniProt Q8NFH5); details: 200 μM, insitu
T3 sequence (Q8NFH5 1-326): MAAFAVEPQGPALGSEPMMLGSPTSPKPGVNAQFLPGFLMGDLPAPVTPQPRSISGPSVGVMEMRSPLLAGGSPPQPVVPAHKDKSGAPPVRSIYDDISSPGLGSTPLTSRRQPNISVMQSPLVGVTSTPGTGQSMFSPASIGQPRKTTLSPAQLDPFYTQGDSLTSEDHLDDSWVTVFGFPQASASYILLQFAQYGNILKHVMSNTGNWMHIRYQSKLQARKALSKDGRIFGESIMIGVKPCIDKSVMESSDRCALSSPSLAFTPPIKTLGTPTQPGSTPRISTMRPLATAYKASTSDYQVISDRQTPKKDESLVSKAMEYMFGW

[6] = biological target: T4, cysteines in MDA-MB-231 and Ramos cells (Homo sapiens, UniProt Q86X76); details: 200 μM, insitu, 231
T4 sequence (Q86X76 14-327): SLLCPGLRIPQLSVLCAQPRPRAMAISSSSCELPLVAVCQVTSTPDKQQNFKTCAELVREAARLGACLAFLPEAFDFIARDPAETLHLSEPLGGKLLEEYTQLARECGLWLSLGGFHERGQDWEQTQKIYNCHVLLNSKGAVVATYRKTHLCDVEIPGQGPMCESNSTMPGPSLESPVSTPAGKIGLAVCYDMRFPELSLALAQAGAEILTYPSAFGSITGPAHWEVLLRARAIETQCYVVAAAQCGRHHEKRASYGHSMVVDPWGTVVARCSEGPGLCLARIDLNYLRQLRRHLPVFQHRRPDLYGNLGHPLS

[7] = biological target: T5, cysteines in MDA-MB-231 and Ramos cells (Homo sapiens, UniProt Q9NXV6); details: 200 μM, insitu
T5 sequence (Q9NXV6 1-580): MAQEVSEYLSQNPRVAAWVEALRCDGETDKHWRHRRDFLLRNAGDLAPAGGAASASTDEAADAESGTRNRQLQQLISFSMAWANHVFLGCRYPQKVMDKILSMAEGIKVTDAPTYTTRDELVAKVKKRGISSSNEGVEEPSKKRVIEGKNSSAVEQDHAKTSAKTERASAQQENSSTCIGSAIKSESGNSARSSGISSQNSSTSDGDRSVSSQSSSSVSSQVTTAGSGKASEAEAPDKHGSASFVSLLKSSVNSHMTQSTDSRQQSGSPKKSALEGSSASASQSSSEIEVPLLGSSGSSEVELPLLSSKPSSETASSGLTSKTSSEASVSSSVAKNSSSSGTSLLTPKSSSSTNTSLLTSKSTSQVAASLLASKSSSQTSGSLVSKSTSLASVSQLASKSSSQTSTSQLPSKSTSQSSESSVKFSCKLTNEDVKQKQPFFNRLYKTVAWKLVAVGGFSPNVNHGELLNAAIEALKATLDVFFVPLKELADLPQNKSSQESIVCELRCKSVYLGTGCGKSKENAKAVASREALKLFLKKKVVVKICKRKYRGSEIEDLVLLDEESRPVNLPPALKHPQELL

[8] = biological target: cysteines in MDA-MB-231 and Ramos cells (Homo sapiens, UniProt P22061); details: 200 μM, insitu
Chain of cysteines in MDA-MB-231 and Ramos cells (Homo sapiens, UniProt P22061) (P22061 whole entry): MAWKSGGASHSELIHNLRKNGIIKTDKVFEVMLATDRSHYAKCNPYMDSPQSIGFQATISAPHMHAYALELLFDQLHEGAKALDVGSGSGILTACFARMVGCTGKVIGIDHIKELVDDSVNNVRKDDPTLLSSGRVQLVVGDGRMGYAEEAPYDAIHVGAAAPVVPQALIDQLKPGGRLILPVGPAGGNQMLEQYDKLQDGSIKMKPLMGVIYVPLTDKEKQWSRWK

[9] = biological target: cysteines in MDA-MB-231 and Ramos cells (Homo sapiens, UniProt Q9UNI6); details: 200 μM, insitu, 231
Chain of cysteines in MDA-MB-231 and Ramos cells (Homo sapiens, UniProt Q9UNI6) (Q9UNI6 whole entry): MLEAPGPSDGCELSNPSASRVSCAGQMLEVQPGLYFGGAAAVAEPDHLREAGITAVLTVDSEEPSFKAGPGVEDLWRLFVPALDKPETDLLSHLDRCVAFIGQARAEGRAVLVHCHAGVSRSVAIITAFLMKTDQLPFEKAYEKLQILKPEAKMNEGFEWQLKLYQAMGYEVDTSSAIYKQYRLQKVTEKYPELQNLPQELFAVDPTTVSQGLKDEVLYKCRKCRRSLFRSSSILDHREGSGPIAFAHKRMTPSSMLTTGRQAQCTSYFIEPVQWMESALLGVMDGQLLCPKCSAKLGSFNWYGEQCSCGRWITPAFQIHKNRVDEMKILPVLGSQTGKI

[10] = biological target: cysteines in MDA-MB-231 and Ramos cells (Homo sapiens, UniProt P04818); details: 200 μM, insitu
Chain of cysteines in MDA-MB-231 and Ramos cells (Homo sapiens, UniProt P04818) (P04818 whole entry): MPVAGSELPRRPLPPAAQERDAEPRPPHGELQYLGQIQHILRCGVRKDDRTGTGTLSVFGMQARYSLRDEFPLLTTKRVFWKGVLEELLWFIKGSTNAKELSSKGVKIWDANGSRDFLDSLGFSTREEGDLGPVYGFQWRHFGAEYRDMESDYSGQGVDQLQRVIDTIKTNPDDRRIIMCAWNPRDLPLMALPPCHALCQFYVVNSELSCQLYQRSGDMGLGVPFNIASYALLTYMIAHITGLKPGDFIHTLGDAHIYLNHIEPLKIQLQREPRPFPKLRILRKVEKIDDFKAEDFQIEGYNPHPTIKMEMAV

[11] = biological target: cysteines in MDA-MB-231 and Ramos cells (Homo sapiens, UniProt Q9BRJ7); details: 200 μM, insitu, 231
Chain of cysteines in MDA-MB-231 and Ramos cells (Homo sapiens, UniProt Q9BRJ7) (Q9BRJ7 whole entry): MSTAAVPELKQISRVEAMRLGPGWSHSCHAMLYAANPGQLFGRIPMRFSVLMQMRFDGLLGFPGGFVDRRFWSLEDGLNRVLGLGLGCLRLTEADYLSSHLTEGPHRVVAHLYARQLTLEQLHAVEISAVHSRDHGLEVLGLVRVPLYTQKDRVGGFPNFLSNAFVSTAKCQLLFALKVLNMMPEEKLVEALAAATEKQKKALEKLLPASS

Chain of cysteines in MDA-MB-231 and Ramos cells (Homo sapiens, UniProt Q96NY7) (Q96NY7 whole entry): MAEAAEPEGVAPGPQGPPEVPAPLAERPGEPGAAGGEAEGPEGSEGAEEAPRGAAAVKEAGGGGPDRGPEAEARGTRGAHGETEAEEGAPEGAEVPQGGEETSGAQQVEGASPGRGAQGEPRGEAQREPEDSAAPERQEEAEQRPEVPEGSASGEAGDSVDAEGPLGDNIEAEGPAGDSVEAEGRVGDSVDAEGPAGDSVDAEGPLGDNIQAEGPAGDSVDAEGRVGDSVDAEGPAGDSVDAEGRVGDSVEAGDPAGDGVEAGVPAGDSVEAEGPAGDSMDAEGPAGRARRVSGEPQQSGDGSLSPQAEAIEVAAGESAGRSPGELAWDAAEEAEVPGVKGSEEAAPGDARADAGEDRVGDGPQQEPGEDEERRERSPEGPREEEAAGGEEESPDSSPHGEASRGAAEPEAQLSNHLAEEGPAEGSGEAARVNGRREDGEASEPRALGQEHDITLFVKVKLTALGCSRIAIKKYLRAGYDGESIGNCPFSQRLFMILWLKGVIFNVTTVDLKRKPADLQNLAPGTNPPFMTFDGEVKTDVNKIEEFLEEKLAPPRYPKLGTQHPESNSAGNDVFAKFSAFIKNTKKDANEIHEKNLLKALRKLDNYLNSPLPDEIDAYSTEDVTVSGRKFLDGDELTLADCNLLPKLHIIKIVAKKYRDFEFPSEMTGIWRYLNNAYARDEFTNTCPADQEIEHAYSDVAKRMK

isoTOP-ABPP ratio Q96NY7_C487 [1] | isoTOP-ABPP ratio Q9Y676_C128 [2] | isoTOP-ABPP ratio Q8NFH5_C255 [5]; 231 | isoTOP-ABPP ratio Q9NXV6_C516 [7]; 231 | isoTOP-ABPP ratio Q9UNI6_C265 [9] | isoTOP-ABPP ratio P04818_C199 [10]; 231 | isoTOP-ABPP ratio Q9BRJ7_C88 [11] | isoTOP-ABPP ratio Q8WVV9_C464 [3] | SMILES | also measured
1.2 | 1.5 | 1.8 | 0.8 |  |  |  |  | O=C(CCl)NC12CC3CC(CC(C3)C1)C2 [compound 21] | isoTOP-ABPP ratio, cysteine Q8WVV9_C464 [3]: 1.4; isoTOP-ABPP ratio, cysteine O43175_C369 [4]; 231: 1.0; isoTOP-ABPP ratio, cysteine Q86X76_C203 [6]: 0.8
 | 1.0 |  | 1.4 | 0.6 | 0.5 |  |  | CC(C)CCOCCNC(=O)CCl [compound 27] | isoTOP-ABPP ratio P22061_ [8]; 231: 2.2
 |  |  |  | 0.8 |  | 1.7 |  | COc1ccccc1OCCNC(=O)CCl [compound 28] | 
 |  |  |  |  |  |  |  | O=C(CCl)N1CCN(CC(=O)N2CCOCC2)CC1 [compound 29] | isoTOP-ABPP ratio P22061_ ([8]; ramos): 1.2; isoTOP-ABPP ratio O43175_C369 ([4]; ramos): 1.1; isoTOP-ABPP ratio Q8NFH5_C255 ([5]; ramos): 1.6; isoTOP-ABPP ratio P04818_C199 ([10]; ramos): 2.5; isoTOP-ABPP ratio Q9NXV6_C516 ([7]; ramos): 1.1
0.5 |  |  |  |  |  | 2.9 |  | C=CC(=O)N(Cc1cccnc1)c1cc(C(F)(F)F)cc(C(F)(F)F)c1 [compound 31] | isoTOP-ABPP ratio O43175_C369 [4]; 231: 20.0; isoTOP-ABPP ratio O43175_C369 ([4]; ramos): 20.0
 | 1.0 | 1.1 | 1.8 | 1.0 | 20.0 | 0.4 | 1.5 | C=CC(=O)Nc1cc(F)c(N2CCN(C(=O)OC(C)(C)C)CC2)c(F)c1 [compound 38] | 
0.4 |  | 0.8 | 0.9 | 1.0 | 0.7 |  |  | Cc1ccc(C=C(C#N)C(=O)NCCN2CCOCC2)cc1 [compound 41] | isoTOP-ABPP ratio P22061_ [8]; 231: 0.7; isoTOP-ABPP ratio Q86X76_C203 [6]: 1.3
1.8 | 2.0 | 5.5 |  | 7.5 | 20.0 | 1.6 | 20.0 | CC1CCc2ccccc2N1C(=O)CCl (stereo not shown) [compound 45] | isoTOP-ABPP ratio Q86X76_C203 [6]: 20.0
 | 1.0 |  |  |  | 20.0 | 1.0 | 3.2 | O=C(CCl)Nc1cccc2ncccc12 [compound 51] | 
